Series [1] has as its system Mus musculus. Briefly: Toxicity in Swiss albino mouse assessed as urea level at 75 mg/kg, ip administered for 10 days (reference value: 42 +/- 2.78 mg/dl). Type of series: organism-based. The following applies: in vivo, 240 h. Details: dose 75 mg/kg, route intraperitoneal.
A short description of series [2]: Cytotoxicity against mouse EAC cells after 48 hrs by MTT assay. Type of series: functional, cell-based. The following applies: Ehrlich. A general note: Formazan colour is commonly taken as a measure of viable cells.
Series [3] in a line: Cytotoxicity against mouse DLA cells after 48 hrs by trypan blue exclusion assay. Type of series: functional, cell-based.
For series [4], the system named is Ehrlich. The series can be described thus: Antitumor activity against ip dosed mouse EAC cells allografted in Swiss albino mouse assessed as decrease in body weight administered 3 doses every alternate days after three days of tumor growth. It counts as functional, organism-based.
In series [5] the test system is DLA. The series can be described thus: Antitumor activity against mouse DLA cells allografted in Swiss albino mouse assessed as tumor regression at 75 mg/kg, ip administered alternate days total of 10 doses measured on day 35 relative to untreated control. Type of series: functional, organism-based. Also noted: dose 75 mg/kg.
The subject of series [6] is Mus musculus. The series can be described thus: Antiangiogenic activity in mouse EAC cells allografted Swiss albino mouse model assessed as decrease in microvessel density in peritoneum at 75 mg/kg, ip 3 doses administered every alternate days after three days of tumor growth by hematoxylin and eosin staining method. Type of series: functional, organism-based. Also noted: dose 75 mg/kg. Conditions: Ehrlich.

For series [7], the system named is Ehrlich. Briefly: Antitumor activity against mouse EAC cells allografted in Swiss albino mouse assessed as tumor cell shrinkage at 75 mg/kg, ip 3 doses administered every alternate days after three days of tumor growth. Type of series: functional, organism-based. Also noted: dose 75 mg/kg.
A short description of series [8]: Cytotoxicity against mouse DLA cells after 48 hrs by MTT assay. It counts as functional, cell-based.
Series [9] has as its system Mus musculus. Briefly: Antiangiogenic activity in mouse EAC cells allografted Swiss albino mouse model assessed as decrease in peritoneal angiogenesis at 75 mg/kg, ip 3 doses administered every alternate days after three days of tumor growth. The following applies: Ehrlich. It counts as functional, organism-based. Details: dose 75 mg/kg.
Series [10] concerns Ehrlich. The series can be described thus: Antitumor activity against mouse EAC cells allografted in Swiss albino mouse assessed as irregular tumor cell shape at 75 mg/kg, ip 3 doses administered every alternate days after three days of tumor growth by Giemsa staining. Type of series: functional, organism-based. Details: dose 75 mg/kg.
Series [11] has as its system Ehrlich. Briefly: Antitumor activity against mouse EAC cells allografted in Swiss albino mouse assessed as decrease in ascites fluid secretion at 75 mg/kg, ip 3 doses administered every alternate days after three days of tumor growth. It counts as functional, organism-based. Also noted: dose 75 mg/kg.
Series [12] has as its system Mus musculus. The series can be described thus: Toxicity in Swiss albino mouse assessed as alkaline phosphatase level at 75 mg/kg, ip administered for 10 days (reference value: 128.55 +/- 2.55 IU/L). It counts as organism-based. Also noted: dose 75 mg/kg, route intraperitoneal. Conditions: in vivo, 240 h.
Series [13] has as its system DLA. Briefly: Antitumor activity against mouse DLA cells allografted in Swiss albino mouse assessed as inhibition of tumor growth measuring tumor volume at 75 mg/kg, ip administered alternate days total of 10 doses relative to untreated control. Type of series: functional, organism-based. Also noted: dose 75 mg/kg.
Series [14] can be described thus: (§1) Cytotoxicity against mouse EAC cells after 48 hrs by LDH release assay. The following applies: Ehrlich. Type of series: functional, cell-based. A general note: LDH leaks from cells whose membrane has failed.
The subject of series [15] is Ehrlich. Described as §1. Type of series: functional, cell-based.
Series [16] concerns Mus musculus. The series can be described thus: Toxicity in Swiss albino mouse assessed as creatinine level at 75 mg/kg, ip administered for 10 days (reference value: 0.59 +/- 1.05 mg/dl). It counts as organism-based. Details: dose 75 mg/kg, route intraperitoneal. Conditions: in vivo, 240 h.
Series [17] deals with Ehrlich. The series can be described thus: Antitumor activity against mouse EAC cells allografted in Swiss albino mouse assessed as inhibition of tumor growth at 75 mg/kg, ip 3 doses administered every alternate days after three days of tumor growth. Details: dose 75 mg/kg. It counts as functional, organism-based.
The subject of series [18] is Mus musculus. The series can be described thus: Toxicity in Swiss albino mouse assessed as change in spleen morphology at 75 mg/kg, ip administered for 10 days relative to untreated control. Details: dose 75 mg/kg, route intraperitoneal. Type of series: organism-based. The following applies: in vivo, 240 h.
For series [19], the system named is Ehrlich. Briefly: Antitumor activity against mouse EAC cells allografted in Swiss albino mouse assessed as membrane blebbing of tumor cells at 75 mg/kg, ip 3 doses administered every alternate days after three days of tumor growth by Giemsa staining. It counts as functional, organism-based. Also noted: dose 75 mg/kg.
The subject of series [20] is Ehrlich. The series can be described thus: Antitumor activity against mouse EAC cells allografted in Swiss albino mouse assessed as formation of apoptotic bodies in tumor cells at 75 mg/kg, ip 3 doses administered every alternate days after three days of tumor growth by Giemsa staining. Type of series: functional, organism-based. Details: dose 75 mg/kg.
A short description of series [21]: Antitumor activity against mouse EAC cells allografted in Swiss albino mouse model assessed as increase in body weight at 75 mg/kg, ip 3 doses administered every alternate days after three days of tumor growth measured after 10 days. It counts as functional, Ehrlich. Conditions: route intraperitoneal.
Series [22] can be described thus: Cytotoxicity against mouse EAC cells after 48 hrs by trypan blue exclusion assay. It counts as functional, cell-based. The following applies: Ehrlich.
In series [23] the test system is Ehrlich. The series can be described thus: Antitumor activity against mouse EAC cells allografted in Swiss albino mouse assessed as DNA fragmentation in tumor cells at 75 mg/kg, ip 3 doses administered every alternate days after three days of tumor growth. Details: dose 75 mg/kg. Type of series: functional, organism-based.
Series [24] is described as follows: (§2) Cytotoxicity against mouse DLA cells after 48 hrs by LDH release assay. It counts as functional, cell-based.
In series [25] the test system is DLA. The series is described as §2. It counts as functional, cell-based.
Series [26] in a line: Antitumor activity against mouse EAC cells allografted in Swiss albino mouse assessed as increase in life span at 75 mg/kg, ip 3 doses administered every alternate days after three days of tumor growth (reference value: 10 days). It counts as functional, Ehrlich. The following applies: route intraperitoneal.
For series [27], the system named is Mus musculus. The series can be described thus: Toxicity in Swiss albino mouse assessed as change in liver morphology at 75 mg/kg, ip administered for 10 days relative to untreated control. Conditions: in vivo, 240 h. Type of series: organism-based. Details: dose 75 mg/kg, route intraperitoneal.
The subject of series [28] is Chorioallantoic membrane. Briefly: In vivo antiangiogenic activity in 12 days fertilized chicken embryo chorioallantoic membrane model assessed as inhibition of rVEGF165-induced angiogenesis at 10 uM by photographic analysis relative to control. Type of series: functional, organism-based. The following applies: Gallus gallus.
A short description of series [29]: Antitumor activity against mouse DLA cells allografted in Swiss albino mouse assessed as increase in lifespan at 75 mg/kg, ip administered alternate days total of 10 doses relative to untreated control. It counts as functional. The following applies: route intraperitoneal.
Series [30] concerns Chorioallantoic membrane. The series can be described thus: Ex vivo antiangiogenic activity in 2 days fertilized chicken embryo chorioallantoic membrane model assessed as inhibition of rVEGF165-induced angiogenesis at 10 uM after 72 hrs by photographic analysis relative to control. It counts as functional, tissue-based. The following applies: Gallus gallus.
Series [31] has as its system Ehrlich. Briefly: Antitumor activity against mouse EAC cells allografted in Swiss albino mouse assessed as condensed nucleus in tumor cells at 75 mg/kg, ip 3 doses administered every alternate days after three days of tumor growth. Details: dose 75 mg/kg. It counts as functional, organism-based.

Activity calls are given as the source filed them. No cut-off for these calls is given here.

One may read the IC50 as the concentration at which inhibition is half-maximal. A higher IC50 goes with a need for much substance. With `Cc1ccc(OCC(=O)NNC(=O)c2cc3ccccc3oc2=O)c(C(=O)c2ccccc2Br)c1`, the Activity was 39 mg/dL in the series on Mus musculus [1]; “Dose-dependent effect” in the series on Ehrlich [4]; 132.65 IU/L with Mus musculus [12]; “Dose-dependent effect” in the series on Ehrlich [15]; 0.5 mg/dL in the series on Mus musculus [16]; “Non-toxic” in the series on Mus musculus [18]. For the same compound, the Activity in series [21] was 10%; with DLA [25], “Dose-dependent effect”; in the series on Mus musculus [27] it was “Non-toxic”. In addition, the IC50 in series [2] came out at 8 µM; in [3], 10 µM; in [8], 10 µM; in series [14] it was 9.4 µM; in series [22], 9 µM; in series [24], 10.6 µM. The outcome in the series on DLA [5], with Mus musculus [6], in the series with Ehrlich [7], in the series with Mus musculus [9], in the series on Ehrlich [10] and in the series on Ehrlich [11] was Active. Besides, the outcome in the series on Ehrlich [19], in the series with Ehrlich [20], in the series on Ehrlich [23] and with Ehrlich [31] was Active. For the same compound, the TGI entry with DLA [13] and in the series on Ehrlich [17] was “Active” each time. For the same compound, the Time in [26] came out at 23 days. Moreover, the inhibition entry with Chorioallantoic membrane [28] and in the series with Chorioallantoic membrane [30] was “Active” throughout. Also, the “fold change (FC)” value in series [29] is 3.

Regarding `Cc1ccc(OCC(=O)NNC(=O)c2cc3ccccc3oc2=O)c(C(=O)c2ccccc2)c1`, the half-inhibitory concentration (IC50) in [2] is 78.4 µM; in series [3], 89.1 µM; in series [8] it was 86.4 µM; in series [14] it was 81.1 µM; in series [22], 86.5 µM; in series [24], 87 µM.

In the case of `Cc1ccc(OCC(=O)NNC(=O)c2cc3ccccc3oc2=O)c(C(=O)c2ccc(Cl)cc2)c1`, the IC50 in series [2] was found to be 56.6 µM; in [3] it was 61.6 µM; in series [8] it was 59.1 µM; in [14], 58 µM; in series [22] it was 57.8 µM; in [24], 60.4 µM.

Take `Cc1ccc(OCC(=O)NNC(=O)c2cc3ccccc3oc2=O)c(C(=O)c2cccc(Br)c2)c1`: the concentration for half-maximal inhibition (IC50) was 66.4 µM in series [2]; 71.9 µM in series [3]; 68.5 µM in series [8]; 68.1 µM in [14]; 68.5 µM in series [22]; 69.8 µM in [24].

In the case of `Cc1ccc(OCC(=O)NNC(=O)c2cc3ccccc3oc2=O)c(C(=O)c2cccc(Cl)c2)c1`, the IC50 in series [2] came out at 64.9 µM; in series [3] it was 68.6 µM; in series [8] it was 65.5 µM; in series [14] it was 65.4 µM; in [22], 67.3 µM; in [24], 67.4 µM.

With `O=c1[nH]cc(F)c(=O)[nH]1` [FLUOROURACIL], the IC50 stood at 14.3 µM in series [2]; 14.3 µM in [3]; 15.7 µM in series [8]; 16.3 µM in series [14]; 16.4 µM in series [22]; 15.8 µM in [24].

Regarding `Cc1ccc(OCC(=O)NNC(=O)c2cc3ccccc3oc2=O)c(C(=O)c2ccccc2Cl)c1`, the 50% inhibitory concentration (IC50) in [2] turned out to be 45.2 µM; in series [3], 54.8 µM; in series [8], 53.8 µM; in [14] it was 47.6 µM; in [22] it was 48.4 µM; in [24], 54.4 µM.

Take `Cc1ccc(OCC(=O)NNC(=O)c2cc3ccccc3oc2=O)c(C(=O)c2ccc(F)cc2)c1`: the 50% inhibitory concentration (IC50) in series [2] was 39.7 µM; in [3], 46.1 µM; in series [8], 43.4 µM; in [14] it was 40.8 µM; in series [22], 43.4 µM; in series [24] it was 45.7 µM.

`COc1ccc(C(=O)c2cc(C)ccc2OCC(=O)NNC(=O)c2cc3ccccc3oc2=O)cc1`: the IC50 in series [2] was determined as 38.4 µM; in [3], 43.5 µM; in [8], 42 µM; in series [14] it was 41.2 µM; in series [22], 41.2 µM; in series [24], 43.4 µM.

Consider `Cc1ccc(C(=O)c2cc(C)ccc2OCC(=O)NNC(=O)c2cc3ccccc3oc2=O)cc1`, for which the concentration for half-maximal inhibition (IC50) in [2] is 78.1 µM; in [3], 87.3 µM; in series [8], 84.6 µM; in series [14], 81.4 µM; in series [22], 82.6 µM; in [24] it was 87.2 µM.

In the case of `Cc1ccc(OCC(=O)NNC(=O)c2cc3ccccc3oc2=O)c(C(=O)c2ccc(Br)cc2)c1`, the concentration for half-maximal inhibition (IC50) came to 87.3 µM in [2]; 95.5 µM in [3]; 92.2 µM in series [8]; 89 µM in [14]; 91.1 µM in series [22]; 95.3 µM in series [24].

The values above are taken from ChEMBL document CHEMBL3124755, “Synthesis and tumor inhibitory activity of novel coumarin analogs targeting angiogenesis and apoptosis” (Eur J Med Chem, 2014).
